US12679839B2, “Cyclin-dependent kinase 7 (CDK7) non-covalent inhibitors” (JANSSEN PHARMACEUTICA NV, priority 2020, dated 2026)

Target: T1, CDK7/Cyclin H/MAT-1 complex (Homo sapiens, UniProt P50613)
T1 construct: Human CDK7 (amino acids 1-346); His6 (N); TEV protease cleavage site (N); made in house; host or cells: baculovirus-SF9 insect cells
Experiment: Absorbance kinetic assay (20 nM CDK7/Cyclin H/MAT-1 complex)
Type: biochemical
Details: for IC50: read-out: CDK7 (20 nM) pIC50 (converted)
How it was run: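 Trimeric complex (His6-TEV CDK7 1-346, MAT1 1-309, cyclin H 1-323) from Sf9 cells, at 20 nM, phosphorylating RNA Pol II-derived CDK7/9-tide; ADP coupled via PK/LDH to NADH depletion read at 340 nm every 2 min for 8 h. Steady-state slopes gave % inhibition; IC50 from 11-point Hill fit.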

T1 sequence (P50613 whole entry, the tested form may be a part): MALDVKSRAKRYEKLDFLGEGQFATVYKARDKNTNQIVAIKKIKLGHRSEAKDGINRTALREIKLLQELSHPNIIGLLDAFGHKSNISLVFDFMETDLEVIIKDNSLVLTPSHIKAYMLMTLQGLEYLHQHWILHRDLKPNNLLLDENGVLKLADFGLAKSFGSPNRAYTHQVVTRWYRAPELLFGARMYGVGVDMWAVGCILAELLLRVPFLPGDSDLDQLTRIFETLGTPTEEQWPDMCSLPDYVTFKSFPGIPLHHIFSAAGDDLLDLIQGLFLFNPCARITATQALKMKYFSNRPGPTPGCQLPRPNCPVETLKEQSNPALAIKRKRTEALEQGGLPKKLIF
T1 sequence (P51946 whole entry partner, the tested form may be a part): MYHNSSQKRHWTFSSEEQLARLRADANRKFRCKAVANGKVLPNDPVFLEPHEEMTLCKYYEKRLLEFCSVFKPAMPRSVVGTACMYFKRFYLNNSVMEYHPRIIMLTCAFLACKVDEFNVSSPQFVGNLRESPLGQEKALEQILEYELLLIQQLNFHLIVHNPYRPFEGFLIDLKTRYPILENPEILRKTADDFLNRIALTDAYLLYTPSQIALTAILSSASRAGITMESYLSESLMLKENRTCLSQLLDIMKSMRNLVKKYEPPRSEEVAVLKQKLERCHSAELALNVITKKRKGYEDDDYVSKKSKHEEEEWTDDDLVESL
T1 sequence (P51948 whole entry partner, the tested form may be a part): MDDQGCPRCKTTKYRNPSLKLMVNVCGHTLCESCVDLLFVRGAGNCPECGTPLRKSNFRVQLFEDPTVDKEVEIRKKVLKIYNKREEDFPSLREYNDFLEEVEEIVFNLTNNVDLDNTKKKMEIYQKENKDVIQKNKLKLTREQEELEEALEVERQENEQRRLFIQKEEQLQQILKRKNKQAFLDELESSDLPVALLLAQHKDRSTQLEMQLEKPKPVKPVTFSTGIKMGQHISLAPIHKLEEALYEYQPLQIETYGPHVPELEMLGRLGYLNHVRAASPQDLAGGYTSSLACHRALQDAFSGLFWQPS

CDK7 (20 nM) pIC50	IC50	Structure (SMILES)
6.62		C[C@@H]1Cc2cnc(NCC3CCS(=O)(=O)C3)nc2CN1C(=O)[C@H]1CCN(C)C[C@@H]1c1ccccc1 (stereo partly drawn) [Compound 49]
>8.01		C[C@@H]1Cc2cnc(NC3CCC(OC(F)F)CC3)nc2CN1C(=O)[C@H]1CCN(C)C[C@@H]1c1ccccc1 (stereo partly drawn) [Compound 69]
8.01		C[C@@H]1Cc2cnc(N[C@H](C)c3ccccc3)nc2CN1C(=O)[C@H]1CCN(C)C[C@@H]1c1ccccc1 [Compound 22]
	< 9.77 nM	C[C@@H]1Cc2cnc(NCc3ccn(C)c3)nc2CN1C(=O)[C@H]1CCN(C)C[C@@H]1c1ccccc1 [Compound 60]
7.48		CO[C@H]1CC[C@H](Nc2ncc3c(n2)CN(C(=O)[C@H]2CCN(C)C[C@@H]2c2ccccc2)[C@H]2C[C@@H]32)CC1 [Compound 201]
7.62		C[C@@H]1Cc2cnc(NC3CCN(CC(F)(F)F)CC3)nc2CN1C(=O)[C@H]1CCN(C)C[C@@H]1c1ccccc1 [Compound 45]
>7.7		C[C@@H]1Cc2cnc(NC3CCN(S(=O)(=O)C4CC4)CC3)nc2CN1C(=O)N1CCN(C)C[C@@H]1c1ccccc1 [Compound 210]
>8.01		C[C@@H]1Cc2cnc(Nc3cnn(C)c3)nc2CN1C(=O)[C@H]1CCN(C)C[C@@H]1c1ccccc1 [Compound 82]
7.93		Cc1cc(Nc2ncc3c(n2)CN(C(=O)[C@H]2CCN(C)C[C@@H]2c2ccccc2)[C@H](C)C3)ccn1 [Compound 78]
7.43		C[C@@H]1Cc2cnc(NC(C)(C)c3cnn(C)c3)nc2CN1C(=O)[C@H]1CCN(C)C[C@@H]1c1ccccc1 [Compound 90]
7.72		C[C@@H]1Cc2cnc(Nc3cnn(CC(C)(C)O)c3)nc2CN1C(=O)[C@H]1CCN(C)C[C@@H]1c1ccccc1 [Compound 74]
	15.5 nM	Cc1cccc([C@H]2CN(C)CC[C@@H]2C(=O)N2Cc3nc(Nc4cnn(C)c4)ncc3C[C@H]2C)c1 (relative stereo) [Compound 126]
>8.01		C[C@@H]1Cc2cnc(NCc3ccccc3)nc2CN1C(=O)[C@H]1CCN(CC2COC2)C[C@@H]1c1ccccc1 (single isomer, unassigned) [Compound 155]
	11 nM	C[C@@H]1Cc2cnc(N[C@@H]3CCOC(C)(C)C3)nc2CN1C(=O)[C@H]1CCN(C)C[C@@H]1c1ccccc1 (relative stereo) [Compound 40]
6.53		CN1CC[C@H](C(=O)N2Cc3nc(NCc4ccn(C)n4)ncc3CC2(C)C)[C@@H](c2ccccc2)C1 (single isomer, unassigned) [Compound 191]
7.15		C[C@@H]1Cc2cnc(NC3CCOCC3)nc2CN1C(=O)[C@H]1CCN(C)C[C@@H]1c1ccc(Cl)c(F)c1 [Compound 122b]
7.37		C[C@@H]1Cc2cnc(Nc3ccnn3C)nc2CN1C(=O)[C@H]1CCN(C)C[C@@H]1c1ccccc1 [Compound 79]
	105 nM	Cc1ccc([C@@H]2CN(C)CC[C@H]2C(=O)N2Cc3nc(NC4CCOCC4)ncc3C[C@H]2C)cn1 (relative stereo) [Compound 108]

CDK7 (20 nM) pIC50	IC50	Structure (SMILES)
6.66		C[C@@H]1Cc2cnc(NCc3cnn(C)c3)nc2CN1C(=O)[C@H]1CCN(C)C[C@@H]1c1ccccc1 [Compound 57]
>8.01		CO[C@]1(C)CC[C@@H](Nc2ncc3c(n2)CN(C(=O)[C@H]2CCN(C)C[C@@H]2c2ccccc2)[C@H](C)C3)CC1 [Compound 10]
6.25		C[C@@H]1Cc2cnc(NC3CCOCC3)nc2CN1C(=O)[C@@H]1CC[C@@H](N(C)C)CN1c1ccccc1 (mixture of isomers) [Compound 167]
	17 nM	Cc1cccc([C@H]2CN(C)CC[C@@H]2C(=O)N2Cc3nc(Nc4cnn(C)c4)ncc3[C@@H]3C[C@@H]32)c1 (relative stereo) [Compound 203]
7.74		Cc1cccc([C@H]2CN(C(C)C)CC[C@@H]2C(=O)N2Cc3nc(NC4CCOCC4)ncc3C[C@H]2C)c1 [Compound 166]
	< 9.77 nM	C[C@@H]1Cc2cnc(N[C@H]3CCOC4(CCC4)C3)nc2CN1C(=O)[C@H]1CCN(C)C[C@@H]1c1ccccc1 (relative stereo) [Compound 9]
	13.2 nM	C[C@H]1Cc2cnc(NC3CCOCC3)nc2CN1C(=O)N1CCN(C)C[C@H]1c1cccc(F)c1 (relative stereo) [Compound 212]
7.58		Cc1cc(CNc2ncc3c(n2)CN(C(=O)[C@H]2CCN(C)C[C@@H]2c2ccccc2)[C@H](C)C3)nn1C [Compound 65]
6.85		C[C@@H]1Cc2cnc(NCc3cc(C(F)F)n(C)n3)nc2CN1C(=O)[C@H]1CCN(C)C[C@@H]1c1ccccc1 [Compound 56]
	< 9.77 nM	C[C@@H]1Cc2cnc(N[C@@H]3CCOC4(CCC4)C3)nc2CN1C(=O)[C@H]1CCN(C)C[C@@H]1c1ccccc1 (relative stereo) [Compound 8]
8.01		CO[C@H]1CC[C@H](Nc2ncc3c(n2)CN(C(=O)[C@H]2CCN(C)C[C@@H]2c2ccccc2)[C@H](C)C3)CC1 [Compound 37]
6.8		C[C@@H]1Cc2cnc(NCc3ccn(C)n3)nc2CN1C(=O)N1CCN(C)C[C@@H]1c1ccccc1 [Compound 213]
7.81		C[C@@H]1Cc2cnc(NC3CCOCC3)nc2CN1C(=O)N1CCN(C)C[C@@H]1c1ccccc1 [Compound 204a]
6.80		CO[C@H]1CC[C@H](Nc2ncc3c(n2)CN(C(=O)[C@H]2CCN(C)C[C@@H]2c2ccccc2)C2(CC2)C3)CC1 [Compound 192]
	51.3 nM	C[C@@H]1Cc2cnc(NCc3cc[nH]n3)nc2CN1C(=O)[C@H]1CCN(C)C[C@@H]1c1ccccc1 [Compound 51]
7.6		Cc1ccc(CNc2ncc3c(n2)CN(C(=O)[C@H]2CCN(C)C[C@@H]2c2ccccc2)[C@H](C)C3)o1 [Compound 50]
7.52		C[C@H]1Cc2cnc(NC3(c4ccccc4)COC3)cc2CN1C(=O)[C@H]1CCN(C)C[C@@H]1c1ccccc1 (single isomer, unassigned) [Compound 175]
>8.01		C[C@@H]1Cc2cnc(N[C@H]3CCC[C@H](O)C3)nc2CN1C(=O)[C@H]1CCN(C)C[C@@H]1c1ccccc1 [Compound 59]
